Experimental data taken from patent publication US20250170093A1, “ENDOPLASMIC RETICULUM PROTEIN HYOU1-BINDING COMPOUND FOR INHIBITING ENDOPLASMIC RETICULUM-MITOCHONDRIAL INTERACTION AND USES THEREOF” (UIF (University Industry Foundation), Yonsei Univeristy, priority 2023, published 2025).

Experiments:
[1] = tested on: ApoE−/− mice fed a high-cholesterol diet; test: Atherosclerosis-induced animal model (ApoE-/- mice fed a high-cholesterol diet); assay type: in vivo, mouse; settings: 20 mg/kg intraperitoneally every 2 days for 8 weeks
Experimental: Mouse experiments were performed in accordance with the ethical guidelines approved by the Institutional Animal Care and Use Committee of Yonsei University (IACUC-A-202208-1519-01). ApoE−/− mice were provided by Dr. Goo Taeg Oh (Ewha Womans University, Korea) and were housed in a pathogen-free system with a 12-hour light-dark cycle with free access to water and food. The mice were fed a high-cholesterol diet from 6 weeks after birth until the end of the experiment. At the end of the experiment, the mice were anesthetized with Avertin (2,2,2-tribromoethanol) and perfused with PBS through the left ventricle.
The outer membrane fat of the aorta isolated from the sacrificed animals was removed, dissected longitudinally, and fixed on a white silicone plate. After overnight fixation with 4% PFA, aortas were stained overnight with Oil Red O and washed with PBS. The heart and liver were then harvested and fixed overnight in 4% PFA and then placed in a 30% sucrose solution. After preparing tissues and preserving through cryopreservation (OCT) or paraffin embedding, sections were prepared for histologic analysis. For analysis of atherosclerotic lesions, the bottom of the heart, including the proximal aorta, was embedded in OCT medium, stained using the Oil Red O stain, and then quantified using the Image J software. […]

p62, LC3B-II and α-SMA = test: Western blot of autophagy and smooth muscle cell proliferation markers in PAH cell model; assay type: cell-based, human; settings: TGF-β-stimulated PASMCs, vs control group
Experimental: Human pulmonary artery smooth muscle cells (PASMCs; 4-8 passages) were cultured in an SmGM2 basal medium (Lonza, CC-3181) containing 5% FBS, supplements (Lonza, CC-4149) and 1% antibiotics.
The cells were cultured in a chamber-type cell culture slide. When they reached 70% confluence, the medium was replaced with a medium containing 0.5% FBS and the cells were incubated for 4 hours to inhibit cell proliferation. The cells were then treated with DMSO and CTS (5 μM) while simultaneously stimulating with TGF-β (5 ng/ml) for 24 hours. The level of p62, LC3 and α-SMA was confirmed by western blot.

HYOU1 = molecular target: T1, HYOU1 (Homo sapiens, UniProt Q9Y4L1); test: DARTS-western analysis in HUVEC lysate; assay type: binding; settings: dose-dependent, read-out: EC50 of resistance to degradation by Pronase
T1 construct: endogenous in cells; host or cells: HUVEC
T1 sequence (Q9Y4L1 33-999): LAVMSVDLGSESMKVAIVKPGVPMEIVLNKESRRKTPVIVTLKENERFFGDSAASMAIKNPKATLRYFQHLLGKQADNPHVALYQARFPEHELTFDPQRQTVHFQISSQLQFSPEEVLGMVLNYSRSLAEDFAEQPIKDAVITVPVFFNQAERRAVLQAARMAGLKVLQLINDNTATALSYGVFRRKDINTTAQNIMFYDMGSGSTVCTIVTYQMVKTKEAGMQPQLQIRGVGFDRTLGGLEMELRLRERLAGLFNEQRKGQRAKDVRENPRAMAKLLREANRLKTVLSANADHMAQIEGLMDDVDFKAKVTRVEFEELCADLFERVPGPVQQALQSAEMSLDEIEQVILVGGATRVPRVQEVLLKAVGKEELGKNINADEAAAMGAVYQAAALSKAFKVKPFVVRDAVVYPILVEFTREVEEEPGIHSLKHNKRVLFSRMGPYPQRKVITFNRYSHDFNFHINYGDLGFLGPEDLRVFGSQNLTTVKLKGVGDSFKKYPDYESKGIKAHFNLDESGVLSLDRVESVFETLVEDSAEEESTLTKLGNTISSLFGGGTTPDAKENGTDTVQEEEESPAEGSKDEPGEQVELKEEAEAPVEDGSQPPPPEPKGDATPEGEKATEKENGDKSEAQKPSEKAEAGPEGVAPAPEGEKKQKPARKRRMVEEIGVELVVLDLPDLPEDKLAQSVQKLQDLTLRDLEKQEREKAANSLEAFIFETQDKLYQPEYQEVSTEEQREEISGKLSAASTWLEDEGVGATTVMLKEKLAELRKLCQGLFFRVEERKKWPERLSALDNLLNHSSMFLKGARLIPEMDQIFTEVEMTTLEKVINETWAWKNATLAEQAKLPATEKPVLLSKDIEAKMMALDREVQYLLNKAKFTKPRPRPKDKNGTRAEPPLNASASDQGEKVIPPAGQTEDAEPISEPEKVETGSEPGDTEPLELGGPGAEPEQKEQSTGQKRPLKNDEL
Experimental: HepG2 or HUVECs (1×10^7 cells) were lysed by homogenization in PBS buffer containing a protease/phosphatase inhibitor cocktail (½ tablet, 25 mL; Pierce), and the concentration of total proteins was determined by BCA assay. All steps were performed on ice to avoid premature protein degradation. The cell lysate (final protein concentration: 1 mg/mL, 100 μL) was aliquoted into a 1.5-mL tube and incubated with 0.01 to 10 μM CTS (in 1 μL DMSO) for 3 hours at 4° C. with gentle stirring. Pronase (non-specific protease) was then added (final concentration: 1 μg/mL) and reaction was performed for 10 minutes. After adding a 6×SDS buffer, the Pronase reaction was stopped by heating for 7 minutes.
DARTS-western analysis was used to validate HYOU1 as a target protein of CTS in the lysate of HUVECs. […] In addition, […] to degradation by Pronase (protease) in a dose-dependent manner, with an EC50 value calculated to be about 1 μM (FIG. 5B).

HUVECs [2] = test: Transmission electron microscopy of ER and mitochondria in HUVECs; assay type: cell-based, human; settings: CTS 5 μM; control group 61%
Excerpt: First, HUVECs were imaged by transmission electron microscopy (TEM) to visualize the ER and mitochondria, and the ER-mitochondrial distance was observed. […] Increased contact between the ER and mitochondria can lead to cellular stress and dysfunction. CTS can help restore cellular homeostasis and prevent adverse effects associated with increased ER-mitochondrial interactions.

HUVECs [3] = test: Mitochondrial calcium assay (Rhod-2) in HUVECs; assay type: cell-based, human; settings: pretreated with xestospongin C, then treated with oxLDL
Experimental: To measure calcium content in mitochondria or cytosol, HUVECs were cultured overnight at a density of 1.5×10^4 cells/well in a chamber slide (8-well) and incubated with Rhod-2/AM (2 μM) (Invitrogen, R1244) or Fluo-4/AM (1 μM) (Invitrogen, F14201), respectively, for 30 minutes at room temperature. The cells were then incubated in a calcium-free Krebs-Ringer-HEPES buffer (pH 7.4) additionally for 30 minutes for de-esterification of the dye. Images were captured in real time using an LSM980 confocal microscope (Zeiss, Oberkochen, Germany).
In addition, it was investigated whether intracellular calcium was released from the ER and imported into the mitochondria in response to oxLDL. Specifically, it was confirmed that, when the HUVECs were treated with oxLDL along with the Rhod-2 dye, which is a marker of mitochondrial calcium, mitochondrial calcium level was increased. In contrast, when HUVECs were pretreated with xestospongin C, which is an IP3R antagonist, and then treated with oxLDL, there was no increase in the mitochondrial calcium level (FIG. 1D). This means that the oxLDL-induced increase in mitochondrial calcium is derived from the endoplasmic reticulum (ER).
Furthermore, in order to investigate whether change in the physical coupling between the ER and mitochondria affects communications between cell organelles, Ca^2+ transport from the ER to mitochondria was examined. […]

| Compound | body weight [1] | decrease of expression of autophagy and smooth muscle cell proliferation markers (p62, LC3B-II and α-SMA) | EC50 (HYOU1) | number of dots closer than 40 nm (ER-mitochondrial distance) (HUVECs [2]) | mitochondrial calcium level (Rhod-2) (HUVECs [3]) |
| --- | --- | --- | --- | --- | --- |
| C[C@H]1COC2=C1C(=O)C(=O)c1c2ccc2c1CCCC2(C)C [CTS, Cryptotanshinone] | did not affect | approximately 40% | ~1000 nM | 37% | – |
| C1CCC[C@H]2CCCN3CC[C@@H](CCCCCC[C@@H]4CCCN5CC[C@@H](CC1)O[C@@H]45)O[C@@H]23 [xestospongin C] | – | – | – | – | no increase |
